Test results as given in patent US20260035370A1, “CRYSTAL FORM OF 8-CHLORO-3-PENTYL-3,7-DIHYDRO-1H-PURIN-2,6-DIONE COMPOUND AND PREPARATION METHOD THEREFOR” (Shanton Pharma Pte. Ltd., priority 2023, published 2026).

Legend:
[1] = High humidity test (influencing factor stability test); assay type: physicochemical; conditions: for Change of purities/related substance contents: under high humidity and light exposure (summary of Table 1)
Description: (§1) Test samples: crystal form I and crystal form II of the compound of formula (1) were prepared according to the above examples.
(§2) Test conditions for investigating the influencing factors:
(§3) High humidity test: Crystal form I and crystal form II of the compound of formula (1) were laid on a dry and clean watch glass, and kept at 40° C.±2° C., and 75% RH±5% for 10 days. Samples were taken respectively on Day 5 and Day 10. The purity and the related substance content of the compound of formula (1) were determined and compared with those of the sample taken on Day 0.

[2] = Photostability test (influencing factor stability test); assay type: physicochemical; conditions: illuminance 5000 Lx ± 500 Lx
Description: as §1, §2
as §3, with “Photostablity” for “High humidity”, “an illuminance of 5000 Lx±500 Lx in a light box” for “40° C.±2° C., and 75% RH±5%”

[3] = In vivo PK after oral administration in SD rats; conditions: for Half-life (t1/2), comparison in words: SD rats, PO, summary of Table 2; for t1/2: male SD rats, PO 2 mg/kg, plasma, mean ± SD, n = 3
Description: Test samples: the compound of represented by formula (1), and crystal forms I and II of the compound of formula (1) were prepared according to Examples 1-3;
The tris (i.e. tris(hydroxymethyl)aminomethane) salt crystal form of the compound 8-chloro-3-pentyl-3,7-dihydro-1H-purine-2,6-dione was prepared with reference to WO2010/068581A1.
Oral administration (PO) of four samples:
The concentrations of the test substances were output using Analyst 1.6.2 from AB Sciex. Parameters such as mean, standard deviation, and variation coefficient were calculated using Microsoft Excel (those directly output by Analyst 1.6.2 were not recalculated). PK parameters were calculated using Pharsight Phoenix 6.2 software (NCA model).

[4] = Hygroscopicity test according to Chinese Pharmacopoeia; assay type: physicochemical; conditions: for Weight gain due to hygroscopicity: 25±1° C., 80%+2% relative humidity; for Hygroscopicity, summary in words: summary of hygroscopicity test
Description: Test Example 3: Hygroscopicity Test (According to Chinese Pharmacopoeia, Guidelines for Drug
Hygroscopicity Testing, at 25±1° C., and 80%+2% Relative Humidity)
An appropriate amount of the sample from the examples was taken for the hygroscopicity test.

[5] = Kinetic stability in the solid state (long-term storage); assay type: physicochemical; conditions: stored at 10° C.-30° C. in double-sealed aluminum packaging and plastic self-sealing bags for more than 6 years
Description: (§4) The dehydration risk of the monohydrate crystal form was also evaluated by using VT-XRPD (variable temperature X-ray powder diffraction) in the present invention. […] The stability of crystal forms I and IV in the solid-state was also studied in the present invention.

[6] = Dehydration risk of monohydrate crystal form by VT-XRPD; assay type: physicochemical
Description: as §4

[7] = Stability of crystal form I in the formulation; assay type: physicochemical
Description: as §4

[8] = Solid-state stability under accelerated conditions, open container; assay type: physicochemical; conditions: one month
Description: as §4

[9] = Thermodynamic stability of crystal forms; assay type: physicochemical
Description: as §4

[10] = Transformation of crystal form on standing under ambient conditions; assay type: physicochemical; conditions: 25-30° C., 70-85% RH, about 10 hours
uric acid = conditions: cited from earlier work
[11] = cited from earlier work
[12] = compared with the free acid; cited from earlier work
[13] = 40° C. ± 2° C./75% ± 5% RH, Day 5
[14] = 40° C. ± 2° C./75% ± 5% RH, Day 10
[15] = Day 0, sample before exposure (baseline for both tests)

SMILES: CCCCCn1c(=O)[nH]c(=O)c2[nH]c(Cl)nc21 [Crystal form I, 8-chloro-3-pentyl-3,7-dihydro-1H-purine-2,6-dione]
- Purity [1, 13]: 99.5%
- Related substance [1, 13]: 0.46%
- Purity [1, 14]: 99.6%
- Related substance [1, 14]: 0.42%
- Purity [1, 15]: 99.6%
- Related substance [1, 15]: 0.45%
- Change of purities/related substance contents [1]: changed very little
- Purity ([2]; Day 5): 99.6%
- Related substance ([2]; Day 5): 0.44%
- Purity ([2]; Day 10): 99.5%
- Related substance ([2]; Day 10): 0.46%
- Half-life (t1/2), comparison in words [3]: longer half-lifes
- t1/2 ([3]; 2 mg/kg): 5.28 ± 1.10 h
- Weight gain due to hygroscopicity [4]: <0.2%
- Hygroscopicity, summary in words [4]: extremely low hygroscopicity
- Crystal form after long-term storage [5]: remained unchanged
- Dehydration risk [6]: very low
- Content of crystal form III in the formulation ([7]; formulation stored at 25° C./60% RH for 9 months): below LOD
- Content of crystal form III in the formulation ([7]; formulation stored at 40° C./75% RH for 6 months): below LOD
- Crystal form transformation after storage ([8]; 25° C./92.5% RH): did not transform
- Crystal form transformation after storage ([8]; 40° C./75% RH): did not transform
- Thermodynamic stability for pharmaceutical applications [9]: advantageous

SMILES: CCCCCn1c(=O)[nH]c(=O)c2[nH]c(Cl)nc21 [Crystal form II, 8-chloro-3-pentyl-3,7-dihydro-1H-purine-2,6-dione]
- Purity [1, 13]: 99.7%
- Related substance [1, 13]: 0.31%
- Purity [1, 14]: 99.7%
- Related substance [1, 14]: 0.32%
- Purity [1, 15]: 99.7%
- Related substance [1, 15]: 0.32%
- Change of purities/related substance contents [1]: changed very little
- Purity ([2]; Day 5): 99.7%
- Related substance ([2]; Day 5): 0.31%
- Purity ([2]; Day 10): 99.7%
- Related substance ([2]; Day 10): 0.32%
- Half-life (t1/2), comparison in words [3]: longer half-lifes
- t1/2 ([3]; 2 mg/kg): 4.26 ± 0.61 h
- Weight gain due to hygroscopicity [4]: <0.2%
- Hygroscopicity, summary in words [4]: extremely low hygroscopicity
- Thermodynamic stability for pharmaceutical applications [9]: advantageous

SMILES: CCCCCn1c(=O)[nH]c(=O)c2[nH]c(Cl)nc21 [Crystal form III, 8-chloro-3-pentyl-3,7-dihydro-1H-purine-2,6-dione]
- Thermodynamic stability for pharmaceutical applications [9]: suboptimal

SMILES: CCCCCn1c(=O)[nH]c(=O)c2[nH]c(Cl)nc21 [Crystal form IV, 8-chloro-3-pentyl-3,7-dihydro-1H-purine-2,6-dione]
- Crystal form transformation after storage ([8]; 25° C./92.5% RH): transformed into crystal form I
- Crystal form transformation after storage ([8]; 40° C./75% RH): transformed into crystal form I

SMILES: CCCCCn1c(=O)[nH]c(=O)c2[nH]c(Cl)nc21 [Crystal form V, 8-chloro-3-pentyl-3,7-dihydro-1H-purine-2,6-dione]
- Crystal form transformation under ambient conditions [10]: transform into crystal form IV

SMILES: CCCCCn1c(=O)[nH]c(=O)c2[nH]c(Cl)nc21 [Formula (1), 8-chloro-3-pentyl-3,7-dihydro-1H-purine-2,6-dione]
- Uric acid-lowering effect (uric acid): good uric acid-lowering effect

SMILES: CCCCCn1c(=O)[nH]c(=O)c2[nH]c(Cl)nc21 [Solid product of Example 1, 8-chloro-3-pentyl-3,7-dihydro-1H-purine-2,6-dione monohydrate, reference compound]
- t1/2 ([3]; monohydrate, 2 mg/kg): 2.32 ± 0.09 h

SMILES: CCCCCn1c(=O)[nH]c(=O)c2[nH]c(Cl)nc21.NC(CO)(CO)CO [tris salt crystal form, 8-chloro-3-pentyl-3,7-dihydro-1H-purine-2,6-dione tris(hydroxymethyl)aminomethane salt]
- t1/2 [3]: 2.38 ± 0.17 h
- Solubility compared with the free acid [11]: higher solubility
- Cmax [12]: increased Cmax
- Tmax [12]: decreased Tmax
